The source of these data is ChEMBL document CHEMBL1157840, “Synthesis and the selective antifungal activity of 5,6,7,8-tetrahydroimidazo[1,2-a]pyridine derivatives” (Eur J Med Chem, 2010).

One data set concerns SK-MEL. Description: Cytotoxicity against human SK-MEL cells up to 25 ug/ml after 48 hrs by neutral red assay. In kind it is cell-based.
The subject of data set [1] is Candida albicans. Description: Antifungal activity against Candida albicans ATCC 90028 after 24 hrs by broth microdilution assay. In kind it is functional. As to conditions: ATCC 90028, 24 h.
In another data set the test system is Vero. Description: Cytotoxicity against african green monkey Vero cells up to 25 ug/ml after 48 hrs by neutral red assay. The data set is classed as cell-based. As to conditions: chlorocebus sabaeus.
The next data set has as its system Cyberlindnera jadinii. The data set is described as follows: Antifungal activity against Candida utilis NRRL Y-900 after 24 hrs by broth microdilution assay. The data set is classed as functional. Conditions: Williopsis jadinii, NRRL Y-900, 24 h.
Data set [2] deals with Candida albicans. The data set is described as follows: Antifungal activity against Candida albicans clinical isolate after 24 hrs by broth microdilution assay. In kind it is functional.
In data set [3] the test system is Candida albicans. Description: Antifungal activity against Candida albicans NRRL Y-12983 after 24 hrs by broth microdilution assay. The data set is classed as functional. Conditions: NRRL Y-12983, 24 h.
The next data set has as its system SK-OV-3. Description: Cytotoxicity against human SKOV3 cells up to 25 ug/ml after 48 hrs by neutral red assay. The data set is classed as cell-based. Conditions: sk-ov-3, 48 h.
The next data set has as its system Candida tropicalis. The data set is described as follows: Antifungal activity against Candida tropicalis NRRL Y-12968 after 24 hrs by broth microdilution assay. The data set is classed as functional. As to conditions: NRRL Y-12968, 24 h.
Data set [4] can be described thus: Cytotoxicity against african pig LLC-PK11 up to 25 ug/ml after 48 hrs by neutral red assay. Set-up: species or system Sus scrofa.
Data set [5] concerns Nakaseomyces glabratus. The data set is described as follows: Antifungal activity against Candida glabrata clinical isolate 2 after 24 hrs by broth microdilution assay. In kind it is functional.
The subject of the next data set is BT-549. The data set is described as follows: Cytotoxicity against human BT549 cells up to 25 ug/ml after 48 hrs by neutral red assay. As to conditions: bt-549, 48 h. The data set is classed as cell-based.
For data set [6], the system named is Nakaseomyces glabratus. The data set is described as follows: Antifungal activity against Candida glabrata clinical isolate 1 after 24 hrs by broth microdilution assay. Conditions: isolate 1, 24 h. The data set is classed as functional.
For a further data set, the system named is Candida parapsilosis. The data set is described as follows: Antifungal activity against Candida parapsilosis NRRL Y-12696 after 24 hrs by broth microdilution assay. The data set is classed as functional. As to conditions: Lodderomyces parapsilosis, NRRL Y-12696, 24 h.
The next data set has as its system [Candida] zeylanoides. The data set is described as follows: Antifungal activity against Candida zeylanoides NRRL Y-1774 after 24 hrs by broth microdilution assay. In kind it is functional. As to conditions: Dujonia zeylanoides, NRRL Y-1774, 24 h.
For a further data set, the system named is Pichia kudriavzevii. Description: Antifungal activity against Candida krusei NRRL Y-7179 after 24 hrs by broth microdilution assay. In kind it is functional. Conditions: NRRL Y-7179, 24 h.

≈ marks a conversion by molar mass, not a printed value.

For the compound `Cc1ccc(/C=N/NC(=O)c2cn3c(n2)CCCC3)cc1`, the Activity result (with SK-MEL; in the data set with Vero; in the data set on SK-OV-3; in [4]; with BT-549) was “Non-toxic” in each case. Moreover, the MIC in the data set with Candida albicans [1] was above 0.25 µg/mL; in the data set with Cyberlindnera jadinii, above 0.25 µg/mL; against Candida albicans [2], 0.032 µg/mL (≈ 0.113 µM); in the data set on Candida albicans [3], above 0.25 µg/mL; in the data set on Candida tropicalis, 0.125 µg/mL (≈ 0.443 µM); against Nakaseomyces glabratus [5] it was above 0.25 µg/mL. Besides, the MIC with Nakaseomyces glabratus [6] is above 0.25 µg/mL; in the data set with Candida parapsilosis it was 0.5 µg/mL (≈ 1.77 µM); in data set [Candida] zeylanoides, above 0.25 µg/mL; against Pichia kudriavzevii, above 0.25 µg/mL.

On to `CC(C)c1ccc(/C=N/NC(=O)c2cn3c(n2)CCCC3)cc1`, for which the Activity result (in the data set on SK-MEL; in the data set with Vero; with SK-OV-3; in [4]; in the data set with BT-549) was “Non-toxic” throughout. Further, the MIC in the data set on Candida albicans [1] is above 0.25 µg/mL; against Cyberlindnera jadinii it was above 0.25 µg/mL; with Candida albicans [2], 0.125 µg/mL (≈ 0.403 µM); in the data set on Candida albicans [3], above 0.25 µg/mL; in the data set with Candida tropicalis, 0.125 µg/mL (≈ 0.403 µM); in the data set on Nakaseomyces glabratus [5] it was 0.5 µg/mL (≈ 1.61 µM). Besides, the MIC (against Nakaseomyces glabratus [6]; with Candida parapsilosis; in data set [Candida] zeylanoides; against Pichia kudriavzevii) was above 0.25 µg/mL throughout.

Regarding `O=C(N/N=C/c1ccc([N+](=O)[O-])cc1)c1cn2c(n1)CCCC2`, the Activity entry (in the data set with SK-MEL; in the data set on Vero; in the data set on SK-OV-3; in [4]; in the data set on BT-549) was “Non-toxic” each time. For the same compound, the MIC in the data set on Candida albicans [1] was determined as 0.5 µg/mL (≈ 1.6 µM); against Cyberlindnera jadinii it was 0.5 µg/mL (≈ 1.6 µM); in the data set with Candida albicans [2] it was 0.125 µg/mL (≈ 0.399 µM); against Candida albicans [3] it was 0.25 µg/mL (≈ 0.798 µM); in the data set with Candida tropicalis, 0.25 µg/mL (≈ 0.798 µM); against Nakaseomyces glabratus [5], 0.25 µg/mL (≈ 0.798 µM). Moreover, the MIC with Nakaseomyces glabratus [6] was found to be 0.5 µg/mL (≈ 1.6 µM); in the data set with Candida parapsilosis, 0.25 µg/mL (≈ 0.798 µM); in [Candida] zeylanoides, 0.25 µg/mL (≈ 0.798 µM); with Pichia kudriavzevii, 0.5 µg/mL (≈ 1.6 µM).

Regarding `CN(C)c1ccc(/C=N/NC(=O)c2cn3c(n2)CCCC3)cc1`, the Activity entry (in the data set with SK-MEL; in the data set on Vero; in the data set with SK-OV-3; in data set [4]; with BT-549) was “Non-toxic” in each case. Moreover, the MIC against Candida albicans [1] was above 0.25 µg/mL; in the data set with Cyberlindnera jadinii, above 0.25 µg/mL; in the data set with Candida albicans [2] it was 0.125 µg/mL (≈ 0.401 µM); with Candida albicans [3], above 0.25 µg/mL; against Candida tropicalis, 0.125 µg/mL (≈ 0.401 µM); in the data set with Nakaseomyces glabratus [5], above 0.25 µg/mL. In addition, the MIC (against Nakaseomyces glabratus [6]; in the data set with Candida parapsilosis; in [Candida] zeylanoides; in the data set on Pichia kudriavzevii) was above 0.25 µg/mL throughout.

As to `O=C(N/N=C/c1ccc(Br)cc1)c1cn2c(n1)CCCC2`, the Activity result (in the data set with SK-MEL; with Vero; in the data set on SK-OV-3; in data set [4]; in the data set with BT-549) was “Non-toxic” throughout. Moreover, the MIC is 0.5 µg/mL (≈ 1.44 µM) against Candida albicans [1]; 1 µg/mL (≈ 2.88 µM) in the data set with Cyberlindnera jadinii; 1 µg/mL (≈ 2.88 µM) in the data set with Candida albicans [2]; 0.125 µg/mL (≈ 0.36 µM) in the data set with Candida albicans [3]; 0.5 µg/mL (≈ 1.44 µM) against Candida tropicalis; 0.25 µg/mL (≈ 0.72 µM) with Nakaseomyces glabratus [5]. Also, the MIC is 0.5 µg/mL (≈ 1.44 µM) against Nakaseomyces glabratus [6], 1 µg/mL (≈ 2.88 µM) with Candida parapsilosis, 1 µg/mL (≈ 2.88 µM) in data set [Candida] zeylanoides and 0.25 µg/mL (≈ 0.72 µM) in the data set with Pichia kudriavzevii.

Consider `O=C(N/N=C/c1ccc(Cl)cc1)c1cn2c(n1)CCCC2`, for which the Activity result (with SK-MEL; in the data set on Vero; in the data set on SK-OV-3; in [4]; in the data set on BT-549) was “Non-toxic” throughout. The MIC against Candida albicans [1] is 0.5 µg/mL (≈ 1.65 µM); against Cyberlindnera jadinii it was above 0.25 µg/mL; in the data set with Candida albicans [2] it was 0.125 µg/mL (≈ 0.413 µM); with Candida albicans [3], 0.5 µg/mL (≈ 1.65 µM); with Candida tropicalis, above 0.25 µg/mL; in the data set with Nakaseomyces glabratus [5], 0.125 µg/mL (≈ 0.413 µM). In addition, the MIC in the data set with Nakaseomyces glabratus [6] was above 0.25 µg/mL; with Candida parapsilosis, 0.5 µg/mL (≈ 1.65 µM); in data set [Candida] zeylanoides it was above 0.25 µg/mL; against Pichia kudriavzevii, above 0.25 µg/mL.

Regarding `O=C(N/N=C/c1ccc2c(c1)OCO2)c1cn2c(n1)CCCC2`, the Activity entry (in the data set with SK-MEL; with Vero; in the data set with SK-OV-3; in [4]; with BT-549) was “Non-toxic” throughout. For the same compound, the MIC was above 0.25 µg/mL in the data set with Candida albicans [1]; 0.125 µg/mL (≈ 0.4 µM) with Cyberlindnera jadinii; 0.063 µg/mL (≈ 0.202 µM) against Candida albicans [2]; above 0.25 µg/mL against Candida albicans [3]; 0.125 µg/mL (≈ 0.4 µM) in the data set with Candida tropicalis; above 0.25 µg/mL with Nakaseomyces glabratus [5]. Further, the MIC (against Nakaseomyces glabratus [6]; in the data set with Candida parapsilosis; in [Candida] zeylanoides; against Pichia kudriavzevii) was above 0.25 µg/mL throughout.

Turning to `N#Cc1ccc(/C=N/NC(=O)c2cn3c(n2)CCCC3)cc1`, the Activity result (in the data set on SK-MEL; with Vero; in the data set on SK-OV-3; in data set [4]; in the data set on BT-549) was “Non-toxic” each time. The MIC is 0.063 µg/mL (≈ 0.215 µM) in the data set with Candida albicans [1]; 0.032 µg/mL (≈ 0.109 µM) in the data set with Cyberlindnera jadinii; 0.032 µg/mL (≈ 0.109 µM) in the data set with Candida albicans [2]; 0.032 µg/mL (≈ 0.109 µM) in the data set with Candida albicans [3]; below 0.016 µg/mL in the data set on Candida tropicalis; 0.032 µg/mL (≈ 0.109 µM) against Nakaseomyces glabratus [5]. Moreover, the MIC with Nakaseomyces glabratus [6] is 0.032 µg/mL (≈ 0.109 µM); with Candida parapsilosis, 0.032 µg/mL (≈ 0.109 µM); in [Candida] zeylanoides, 0.032 µg/mL (≈ 0.109 µM); with Pichia kudriavzevii, below 0.016 µg/mL.

Turning to `Clc1ccccc1C(c1ccccc1)(c1ccccc1)n1ccnc1` [CLOTRIMAZOLE], the Activity entry (in the data set on SK-MEL; in the data set with Vero; in the data set on SK-OV-3; in [4]; with BT-549) was “Non-toxic” throughout. Moreover, the MIC in the data set on Candida albicans [1] was below 0.08 µg/mL; against Cyberlindnera jadinii it was below 0.08 µg/mL; in the data set on Candida albicans [2] it was below 0.08 µg/mL; against Candida albicans [3] it was below 0.08 µg/mL; against Candida tropicalis, 0.032 µg/mL (≈ 0.0928 µM); against Nakaseomyces glabratus [5], below 0.08 µg/mL. Moreover, the minimal inhibitory concentration (MIC) in the data set on Nakaseomyces glabratus [6] is below 0.08 µg/mL; with Candida parapsilosis, below 0.08 µg/mL; in data set [Candida] zeylanoides it was 0.125 µg/mL (≈ 0.362 µM); against Pichia kudriavzevii, below 0.08 µg/mL.

On to `COC1=CC(=O)C[C@@H](C)[C@]12Oc1c(Cl)c(OC)cc(OC)c1C2=O` [GRISEOFULVIN], for which the Activity result (with SK-MEL; in the data set on Vero; with SK-OV-3; in data set [4]; with BT-549) was “Non-toxic” each time. For the same compound, the MIC against Cyberlindnera jadinii amounted to 0.5 µg/mL (≈ 1.42 µM); against Candida albicans [2], 0.25 µg/mL (≈ 0.709 µM); in the data set with Candida tropicalis it was 0.125 µg/mL (≈ 0.354 µM); against Nakaseomyces glabratus [5], 0.125 µg/mL (≈ 0.354 µM); in the data set with Nakaseomyces glabratus [6], 0.25 µg/mL (≈ 0.709 µM); with Candida parapsilosis, 0.5 µg/mL (≈ 1.42 µM). Moreover, the figures for the MIC (in [Candida] zeylanoides; against Pichia kudriavzevii) were 0.5 µg/mL (≈ 1.42 µM) and 0.25 µg/mL (≈ 0.709 µM), respectively.

For the compound `CC(=O)N1CCN(c2ccc(OCC3COC(Cn4ccnc4)(c4ccc(Cl)cc4Cl)O3)cc2)CC1` (stereo not drawn) [KETOCONAZOLE], the Activity result (with SK-MEL; with Vero; in the data set on SK-OV-3; in data set [4]; with BT-549) was “Non-toxic” in each case. The MIC in the data set with Candida albicans [1] turned out to be 0.063 µg/mL (≈ 0.119 µM); with Cyberlindnera jadinii it was 0.125 µg/mL (≈ 0.235 µM); in the data set on Candida albicans [2], 0.063 µg/mL (≈ 0.119 µM); with Candida albicans [3], 0.032 µg/mL (≈ 0.0602 µM); against Candida tropicalis it was 0.125 µg/mL (≈ 0.235 µM); against Nakaseomyces glabratus [5] it was 0.032 µg/mL (≈ 0.0602 µM). Further, the MIC in the data set with Nakaseomyces glabratus [6] came out at 0.125 µg/mL (≈ 0.235 µM); with Candida parapsilosis it was 0.032 µg/mL (≈ 0.0602 µM); in data set [Candida] zeylanoides it was 0.5 µg/mL (≈ 0.941 µM); with Pichia kudriavzevii, 0.125 µg/mL (≈ 0.235 µM).
